In patent publication US20080275058A1, “N-Substituted-1H-Quinoline-2,4-Diones, Preparation Method Thereof, And Pharmaceutical Composition Containing The Same” (KOREA RESEARCH INSTITUTE OF CHEMICAL TECHNOLOGY, priority 2005, published 2008):
Read-outs that look alike come from different tables or passages of the source.

Tests used:
hD3 = target: T1, hD3 (Homo sapiens, UniProt P35462); test: Radioligand binding, dopamine D3 ([3H]spiperone); details: Table 4; [3H]spiperone 1 nM; read-out: Binding affinity, IC50 (nM) D3
T1 construct: purchased BioSignal Packard Inc., Montreal, Canada
Method: (§1) 2-2: Binding assays of Dopamine Receptor Family
(§2) The radioligands used were [^3H] spiperone (for hD2L and hD3 receptors, 1 nM) and [^3H] YM-09151-2 (for hD4.2 receptor, 0.06 nM). Radioligand bindings were performed by the protocols provided by the supplier of receptor membranes (BioSignal Packard Inc., Montreal, Canada). Briefly, the buffer used in D2 or D3 receptor binding assay was 50 mM Tris-HCl (pH 7.4), 10 mM MgCl2, 1 mM EDTA, or 50 mM Tris-HCl (pH 7.4), 5 mM MgCl2, 5 mM EDTA, 5 mM KCl, 1.5 mM CaCl2, 120 mM NaCl, respectively. In [^3H] YM-09151-2 receptor binding assays, the buffer containing 50 mM Tris-HCl (pH 7.4), 5 mM MgCl2, 5 mM EDTA, 5 mM KCl and 1.5 mM CaCl2 was used. […] Competition binding studies were carried out with 7-8 concentrations of the test compound run in duplicate tubes, and isotherms from three assays were calculated by computerized nonlinear regression analysis (GraphPad Prism Program, San Diego, […]) to yield median inhibitory concentration (IC50) values.

hD4.2 receptor = target: T2, hD4.2 receptor (Homo sapiens, UniProt P21917, DEL265-296); test: Radioligand binding, dopamine D4 ([3H]YM-09151-2); details: Table 4; [3H]YM-09151-2 0.06 nM; read-out: Binding affinity, IC50 (nM) D4
T2 construct: purchased BioSignal Packard Inc., Montreal, Canada
T2 sequence (P21917 with tags, fused parts or gaps DEL265-296): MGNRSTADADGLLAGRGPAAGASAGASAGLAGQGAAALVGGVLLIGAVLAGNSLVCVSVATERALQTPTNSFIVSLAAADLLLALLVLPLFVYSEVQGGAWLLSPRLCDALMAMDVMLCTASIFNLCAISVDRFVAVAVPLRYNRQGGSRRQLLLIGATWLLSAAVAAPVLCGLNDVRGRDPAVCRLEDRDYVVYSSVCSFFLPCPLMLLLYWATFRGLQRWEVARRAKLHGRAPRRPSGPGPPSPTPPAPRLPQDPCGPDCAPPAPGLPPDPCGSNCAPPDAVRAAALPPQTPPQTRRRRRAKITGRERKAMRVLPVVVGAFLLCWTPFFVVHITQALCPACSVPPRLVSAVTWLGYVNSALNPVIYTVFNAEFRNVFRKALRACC
Method: as §1, §2

[1] = target: T3, Human serotonin 5-HT6 receptor (Homo sapiens, UniProt P50406); test: [3H]LSD binding assay on cloned 5-HT6 receptor membranes
T3 construct: made in house; host or cells: insect Sf21 cells (baculovirus vector BacPAK8)

5-HT2c = target: T4, 5-HT2c (Homo sapiens, UniProt P28335); test: Radioligand binding, 5-HT2c ([3H]Mesulergine); details: Table 4; [3H]Mesulergine 1 nM; read-out: Binding affinity, IC50 (nM) 5-HT2c
T4 construct: purchased Euroscreen/BioSignal Packard Inc
T4 sequence (P28335 33-458): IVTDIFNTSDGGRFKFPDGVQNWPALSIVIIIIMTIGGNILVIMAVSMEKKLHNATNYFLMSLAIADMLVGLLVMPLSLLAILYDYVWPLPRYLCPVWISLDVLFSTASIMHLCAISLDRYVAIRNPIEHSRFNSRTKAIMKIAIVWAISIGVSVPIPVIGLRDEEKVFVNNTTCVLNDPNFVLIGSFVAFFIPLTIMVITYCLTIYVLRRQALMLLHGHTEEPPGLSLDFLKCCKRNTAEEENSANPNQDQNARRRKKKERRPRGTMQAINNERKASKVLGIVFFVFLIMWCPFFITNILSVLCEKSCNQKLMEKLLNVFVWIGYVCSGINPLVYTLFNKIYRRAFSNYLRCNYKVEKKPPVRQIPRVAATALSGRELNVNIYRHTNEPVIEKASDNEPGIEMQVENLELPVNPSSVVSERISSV

D1 = D1 (Homo sapiens, UniProt P21728); test: Radioligand binding, dopamine D1; details: Table 4; read-out: Binding affinity, IC50 (nM) D1
5-HT2a = target: T5, 5-HT2a (Homo sapiens, UniProt P28223); test: Radioligand binding, 5-HT2a ([3H]Ketanserin); details: Table 4; [3H]Ketanserin 1 nM; read-out: Binding affinity, IC50 (nM) 5-HT2a
T5 construct: purchased Euroscreen/BioSignal Packard Inc

5-HT7 = target: T6, 5-HT7 (Homo sapiens, UniProt P34969); test: Radioligand binding, 5-HT7 ([3H]LSD); details: Table 4; [3H]LSD 3 nM; read-out: Binding affinity, IC50 (nM) 5-HT7
T6 construct: purchased Euroscreen/BioSignal Packard Inc

5-HT1a = target: T7, 5-HT1a (Homo sapiens, UniProt P08908); test: Radioligand binding, 5-HT1a ([3H]8-OH-DPAT); details: Table 4; [3H]8-OH-DPAT 0.5 nM; read-out: Binding affinity, IC50 (nM) 5-HT1a
T7 construct: purchased Euroscreen/BioSignal Packard Inc
T7 sequence (P08908 1-422): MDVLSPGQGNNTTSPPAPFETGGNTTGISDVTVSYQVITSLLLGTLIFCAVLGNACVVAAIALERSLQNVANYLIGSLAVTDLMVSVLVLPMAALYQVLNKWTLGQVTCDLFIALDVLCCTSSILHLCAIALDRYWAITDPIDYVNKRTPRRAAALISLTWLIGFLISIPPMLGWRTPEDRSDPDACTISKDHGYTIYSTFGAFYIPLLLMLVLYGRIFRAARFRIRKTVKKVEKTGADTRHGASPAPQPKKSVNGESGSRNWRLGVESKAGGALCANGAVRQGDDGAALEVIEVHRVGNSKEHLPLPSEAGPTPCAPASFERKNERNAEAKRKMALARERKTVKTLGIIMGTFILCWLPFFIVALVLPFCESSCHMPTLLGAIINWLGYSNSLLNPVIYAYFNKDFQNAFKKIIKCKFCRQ
Method: Radioligand bindings were performed according to the test method provided by the supplier of receptor membrane (Euroscreen/BioSignal Packard Inc.). The detailed assay conditions and the results were shown in the following Table 3 and Table 4, respectively.

hD2L = target: T8, hD2L (Homo sapiens, UniProt P14416); test: Radioligand binding, dopamine D2 ([3H]spiperone); details: Table 4; [3H]spiperone 1 nM; read-out: Binding affinity, IC50 (nM) D2
T8 construct: purchased BioSignal Packard Inc., Montreal, Canada
Method: as §1, §2

[2] = Table 2, 1.87 nM [3H]LSD, 37 C, 60 min, read-out: IC50 (nM), binding affinity to the 5-HT6 receptor
[3] = Table 4, read-out: Binding affinity, IC50 (nM) 5-HT6

T8 sequence (P14416 whole entry): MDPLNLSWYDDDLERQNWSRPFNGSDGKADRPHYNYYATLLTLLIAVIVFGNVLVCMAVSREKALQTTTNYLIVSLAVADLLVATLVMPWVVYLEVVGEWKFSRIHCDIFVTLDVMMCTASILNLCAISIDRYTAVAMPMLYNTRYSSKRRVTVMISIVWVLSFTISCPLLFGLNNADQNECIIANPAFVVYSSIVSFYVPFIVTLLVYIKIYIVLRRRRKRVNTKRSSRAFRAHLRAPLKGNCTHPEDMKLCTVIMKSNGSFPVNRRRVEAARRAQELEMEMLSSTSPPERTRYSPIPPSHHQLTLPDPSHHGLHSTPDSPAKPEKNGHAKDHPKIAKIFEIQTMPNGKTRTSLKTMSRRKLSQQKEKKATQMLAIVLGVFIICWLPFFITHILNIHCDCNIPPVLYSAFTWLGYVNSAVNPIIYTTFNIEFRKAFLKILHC
T6 sequence (P34969 whole entry): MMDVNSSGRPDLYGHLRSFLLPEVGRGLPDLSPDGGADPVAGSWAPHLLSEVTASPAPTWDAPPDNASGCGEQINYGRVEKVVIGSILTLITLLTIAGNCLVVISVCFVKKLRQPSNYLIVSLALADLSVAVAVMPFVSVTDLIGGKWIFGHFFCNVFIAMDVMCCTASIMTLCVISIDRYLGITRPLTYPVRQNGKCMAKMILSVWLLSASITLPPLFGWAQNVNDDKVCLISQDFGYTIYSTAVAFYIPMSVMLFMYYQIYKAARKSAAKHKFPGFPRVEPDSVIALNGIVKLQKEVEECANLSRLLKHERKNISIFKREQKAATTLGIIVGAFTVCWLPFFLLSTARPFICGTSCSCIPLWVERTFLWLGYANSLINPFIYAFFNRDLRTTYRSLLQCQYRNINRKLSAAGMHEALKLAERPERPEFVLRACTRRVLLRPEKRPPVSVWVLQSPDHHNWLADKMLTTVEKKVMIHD
T1 sequence (P35462 whole entry): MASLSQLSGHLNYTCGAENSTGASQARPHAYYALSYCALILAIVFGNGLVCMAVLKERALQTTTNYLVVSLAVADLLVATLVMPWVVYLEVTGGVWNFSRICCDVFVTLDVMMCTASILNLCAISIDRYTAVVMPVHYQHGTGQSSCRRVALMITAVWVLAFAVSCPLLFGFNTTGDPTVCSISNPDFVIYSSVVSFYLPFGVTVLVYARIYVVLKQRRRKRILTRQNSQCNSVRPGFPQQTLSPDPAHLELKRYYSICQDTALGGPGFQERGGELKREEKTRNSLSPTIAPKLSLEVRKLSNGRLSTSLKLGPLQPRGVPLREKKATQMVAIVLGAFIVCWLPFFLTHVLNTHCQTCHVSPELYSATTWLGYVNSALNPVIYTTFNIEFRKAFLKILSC
T5 sequence (P28223 whole entry): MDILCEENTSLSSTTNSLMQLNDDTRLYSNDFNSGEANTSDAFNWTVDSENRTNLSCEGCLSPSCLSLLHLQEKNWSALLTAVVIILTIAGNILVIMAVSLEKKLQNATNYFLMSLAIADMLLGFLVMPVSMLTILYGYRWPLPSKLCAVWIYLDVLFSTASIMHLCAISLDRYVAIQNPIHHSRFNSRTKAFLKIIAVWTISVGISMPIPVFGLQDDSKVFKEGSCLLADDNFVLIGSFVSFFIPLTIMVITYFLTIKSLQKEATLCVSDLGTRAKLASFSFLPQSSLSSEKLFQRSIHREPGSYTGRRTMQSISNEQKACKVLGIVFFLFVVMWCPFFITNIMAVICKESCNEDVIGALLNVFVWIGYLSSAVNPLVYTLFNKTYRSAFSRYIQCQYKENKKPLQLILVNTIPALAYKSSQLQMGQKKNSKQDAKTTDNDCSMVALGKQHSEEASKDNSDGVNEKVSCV
T3 sequence (P50406 whole entry): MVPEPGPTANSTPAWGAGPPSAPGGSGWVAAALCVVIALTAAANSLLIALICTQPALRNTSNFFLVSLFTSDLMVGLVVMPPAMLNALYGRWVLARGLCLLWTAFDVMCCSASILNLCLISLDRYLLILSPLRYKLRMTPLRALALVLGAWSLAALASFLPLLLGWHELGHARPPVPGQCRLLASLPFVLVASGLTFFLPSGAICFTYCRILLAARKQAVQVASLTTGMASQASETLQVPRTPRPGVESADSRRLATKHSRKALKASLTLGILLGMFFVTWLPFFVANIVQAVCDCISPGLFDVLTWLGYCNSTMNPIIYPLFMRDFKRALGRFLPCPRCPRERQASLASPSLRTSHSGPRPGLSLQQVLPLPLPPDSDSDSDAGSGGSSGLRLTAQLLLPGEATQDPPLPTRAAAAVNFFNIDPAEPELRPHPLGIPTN
D1, sequence (P21728 whole entry): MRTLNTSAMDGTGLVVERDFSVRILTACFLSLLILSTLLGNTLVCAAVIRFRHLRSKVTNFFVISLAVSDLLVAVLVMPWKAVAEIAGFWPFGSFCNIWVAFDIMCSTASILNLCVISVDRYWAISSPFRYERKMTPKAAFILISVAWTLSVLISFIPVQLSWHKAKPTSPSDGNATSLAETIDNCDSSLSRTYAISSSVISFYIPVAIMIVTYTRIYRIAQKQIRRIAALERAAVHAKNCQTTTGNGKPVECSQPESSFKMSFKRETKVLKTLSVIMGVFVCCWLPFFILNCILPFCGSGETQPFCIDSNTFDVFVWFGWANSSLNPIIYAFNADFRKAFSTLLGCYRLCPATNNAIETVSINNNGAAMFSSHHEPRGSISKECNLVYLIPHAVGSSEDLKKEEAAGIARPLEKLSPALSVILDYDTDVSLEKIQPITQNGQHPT

Row | SMILES | IC50 (hD3) [nM] | IC50 (hD4.2 receptor) [nM] | IC50 [1, 2] [nM] | IC50 [1, 3] [nM] | IC50 (5-HT2c) [nM] | IC50 (D1) [nM] | IC50 (5-HT2a) [nM] | IC50 (5-HT7) [nM] | IC50 (5-HT1a) [nM] | IC50 (hD2L) [nM] | melting point [°C]
1 | CN1CCN(c2cc(Cl)cc3c2C(=O)[C@@](C)(c2ccc(N)cc2)C(=O)N3Cc2ccccc2)CC1 (stereo in doubt) [Example 4, 3-(4-Amino-phenyl)-1-benzyl-7-chloro-3-methyl-5-(4-methyl-piperazin-1-yl)-1H-quinoline-2,4-dione] | 8110 | 8190 | 7.4 | 15 | 5780 | 7090 | 7010 | 5050 | 5800 | 6550 | –
2 | CCN(CC)c1ccc(C2(C)C(=O)c3c(N4CCN(C)CC4)cc(Cl)cc3N(Cc3ccccc3)C2=O)cc1 (stereo not shown) [Example 5, 1-Benzyl-7-chloro-3-(4-diethylamino-phenyl)-3-methyl-5-(4-methyl-piperazin-1-yl)-1H-quinoline-2,4-dione] | 7080 | 8750 | 37.8 | 16.8 | 4660 | 7700 | 7540 | 7620 | 6450 | 7050 | 204 to 206
3 | CN1CCN(c2cc(Cl)cc3c2C(=O)C(C)(c2ccc(O)cc2)C(=O)N3Cc2cccc([N+](=O)[O-])c2)CC1 (stereo not shown) [Example 8, 7-Chloro-3-(4-hydroxy-phenyl)-3-methyl-5-(4-methyl-piperazin-1-yl)-1-(3-nitro-benzyl)-1H-quinoline-2,4-dione] | 9020 | 9150 | 23.8 | 16.8 | 8810 | 7040 | 6950 | 9440 | 7510 | 7290 | 262 to 264
4 | CC1(c2ccc(N)cc2)C(=O)c2c(N3CCNCC3)cc(Cl)cc2N(Cc2ccccc2)C1=O (stereo not shown) [Example 16, 3-(4-Amino-phenyl)-1-benzyl-7-chloro-3-methyl-5-piperazin-1-yl-1H-quinolin-2,4-dione] | 9070 | 8910 | 3.2 | 17.6 | 9880 | 9010 | 8080 | 9350 | 6020 | 6740 | –
5 | CCN(CC)c1ccc(C2(C)C(=O)c3c(N4CCNCC4)cc(Cl)cc3N(Cc3ccccc3)C2=O)cc1 (stereo not shown) [Example 17, 1-Benzyl-7-chloro-3-(4-diethylamino-phenyl)-3-methyl-5-piperazin-1-yl-1H-quinoline-2,4-dione] | 8200 | 9110 | 41.5 | 21.5 | 9810 | 8410 | 7550 | > 10000 | 8550 | 9050 | –
6 | CCNc1ccc(C2(C)C(=O)c3c(N4CCNCC4)cc(Cl)cc3N(Cc3ccccc3)C2=O)cc1 (stereo not shown) [Example 18, 1-Benzyl-7-chloro-3-(4-ethylamino-phenyl)-3-methyl-5-piperazin-1-yl-1H-quinoline-2,4-dione] | 8900 | 8990 | 14.6 | 15.5 | 8450 | > 10000 | 7010 | 6010 | 8050 | > 1000 | –
7 | CC1(c2ccc(O)cc2)C(=O)c2c(N3CCNCC3)cc(Cl)cc2N(Cc2cccc(N)c2)C1=O (stereo not shown) [Example 26, 1-(3-Amino-benzyl)-7-chloro-3-(4-hydroxy-phenyl)-3-methyl-5-piperazin-1yl-1H-quinoline-2,4-dione] | 9120 | 9410 | 8.7 | 19 | 7330 | 6950 | 5750 | 5630 | 5900 | 8410 | –
8 | CC1(c2ccc(O)cc2)C(=O)c2c(N3CCNCC3)cc(Cl)cc2N(Cc2ccccc2O)C1=O (stereo not shown) [Example 30, 7-Chloro-1-(2-hydroxy-benzyl)-3-(4-hydroxy-phenyl)-3-methyl-5-piperazin-1-yl-1H-quinoline-2,4-dione] | 9780 | 8760 | 15.9 | 18.1 | 9450 | 8000 | 8400 | 7340 | 7240 | 7650 | –
9 | CC1(c2ccc(O)cc2)C(=O)c2c(N3CCNCC3)cc(Cl)cc2N(Cc2cccc(Br)c2)C1=O (stereo not shown) [Example 34, 1-(3-Bromo-benzyl)-7-chloro-3-(4-hydroxy-phenyl)-3-methyl-5-piperazin-1-yl-1H-quinoline-2,4-dione] | 9000 | 9350 | 3.6 | 16.8 | 7030 | 9160 | 6960 | 9070 | 7550 | 8050 | –
10 | CC1(c2ccc(O)cc2)C(=O)c2c(N3CCNCC3)cc(Cl)cc2N(Cc2cccnc2)C1=O (stereo not shown) [Example 38, 7-Chloro-3-(4-hydroxy-phenyl)-3-methyl-5-piperazin-1-yl-1-pyridin-3-ylmethyl-1H-quinoline-2,4-dione] | 9310 | 9240 | 30.6 | 20.4 | 9140 | 9410 | 8400 | 6410 | 8450 | 7690 | –
11 | CC1(c2ccc(O)cc2)C(=O)c2c(N3CCNCC3)cc(Cl)cc2N(Cc2ccc3ccccc3c2)C1=O (stereo not shown) [Example 40, 7-Chloro-3-(4-hydroxy-phenyl)-3-methyl-1-naphthalen-2-ylmethyl-5-piperazin-1-yl-1H-quinoline-2,4-dione] | 9310 | 8980 | 55.7 | 18.2 | 8510 | 7510 | 9480 | 7810 | 7510 | 8540 | –
